Data set [1] is described as follows: Cytotoxic effects, tetrazolium salt (MTT) metabolic assay. Format: cell-based. The settings on record: read-out: TC50 (the source's name). Here is the method:
In conjunction with the appropriate starting materials and intermediates, the procedures of examples 1 to 11 can be used to prepare other compounds of formula 1. Examples of compounds thus prepared are listed in the following Tables I, II and III together with mass spectrum data for the compounds, and results from the assays A and B of example 12. Cytotoxic effects noted as TC50 in the following tables were determined according to the tetrazolium salt (MTT) metabolic assay, F. Denizot and F. Lang, J. Immun. Meth., 1986, 89, 271.

Data set [2] deals with HCMV (strain AD169, ATCC VR-538). Briefly: Plaque Reduction Assay (PRA). Format: cell-based, human cytomegalovirus (HCMV). Conditions: Hs-68 cells, approximately 50 PFU HCMV AD169, 8 days at 37°, read-out: EC50. Here is the method:
B. Plaque Reduction Assay (PRA)
Hs-68 cells (ATCC #CRL 1635) were seeded in 12-well plates at 83,000 cells/well in 1 mL of DMEM medium (Gibco Canada Inc.) supplemented with 10% fetal bovine serum (FBS, Gibco Canada Inc.). The plates were incubated for 3 days at 37° to allow the cells to reach 80-90% confluency prior to the assay.
The medium was removed from the cells by aspiration. The cells were then infected with approximately 50 PFU of HCMV (strain AD169, ATCC VR-538) in DMEM medium supplemented with 5% inactivated FBS (assay medium). (DMEM medium is commercially available and has been described by R. Dulbecco et al., Virology 1959, 8, 396.) The virus was allowed to adsorb to cells for 2 h at 37°. Following viral adsorption, the medium was removed from the wells by aspiration. The cells were then incubated with or without 1 mL of appropriate concentrations of test reagent in assay medium. Occasionally, test compounds were added 24 h post-infection. After 4 days of incubation at 37°, the medium was exchanged with fresh medium containing test compound and 4 days later the cells were fixed with 1% aqueous formaldehyde and stained with a 2% violet solution in 20% ethanol in water. Microscopic plaques were counted using a stereomicroscope. Drug effects were calculated as a percent reduction in the number of plaques in the presence of each drug concentration compared to the number observed in the absence of drug. Ganciclovir was used as a positive control in all experiments.
(Plaque reduction counts the foci of infection that form in a cell layer.)

For data set [3], the target named is HCMV NO protease (Human cytomegalovirus, UniProt P16753). Briefly: HCMV NO Protease Assay (inhibition of cleavage of internally quenched fluorogenic peptide substrate). Conditions: 100 nM HCMV NO protease, 5 μM substrate, 2.5 h at 30°, pH 8. Format: biochemical. Here is the method:
This particular assay determines the ability of a test compound to inhibit the activity of HCMV protease. More specifically, in the assay described herein, the inhibitory activity of the test compound is evaluated on the basis of its ability to interfere with the HCMV No protease cleavage of a fluorogenic peptide substrate which in turn is based on the maturation cleavage site of the enzyme.
A. HCMV NO Protease Assay
Material & Methods: Fluorescence measurements were recorded on a Perkin-Elmer LS-50B spectrofluorimeter equipped with a plate reader accessory. UV measurements were recorded on a Thermomax® microplate reader from Molecular Devices Corporation, Menlo Park, Calif., USA.
HCMV NO protease was assayed with an internally quenched fluorogenic substrate based on the maturation cleavage site (Abz-[…](3-NO2)R--OH, kcat /KM =260 M^-1 s^-1). The fluorescence increase upon cleavage of the Ala-Ser amide bond was monitored using excitation λ=312 nm (slit 2.5 nm) and emission λ=415 nm (slit 5 nm). A protocol adaptable to a 96-well plate format was designed for the determination of IC50 values of inhibitors. […] After this period, enzymatic hydrolysis of the fluorogenic substrate in the absence of inhibitor led to about a 30% conversion. Quenching was not required before fluorescence measurement since the total scanning time by the plate reader accessory was brief relative to the duration of the reaction. The aqueous incubation buffer contained 50 mM tris(hydroxymethyl)aminomethane.HCl pH 8, 0.5M Na2 SO4, 50 mM NaCl, 0.1 mM EDTA, 1 mM tris(2-carboxyethyl)phosphine.HCl, 3% v/v DMSO and 0.05% w/v casein. The final concentrations of HCMV NO protease (expressed in terms of total monomer concentration) and substrate were 100 nM and 5 μM respectively. IC50 values were obtained through fitting of the inhibition curve to a competitive inhibition model using SAS NLIN procedure. The mode of inhibition was determined by measurements of the initial rates (in cuvettes) at various substrate concentrations in the buffer as described above. The IC50 values listed in the following tables the IC50 were obtained according to this assay.

[4] abbreviates: Human betaherpesvirus 5, AD169, Hs68, 192 h.

Molecules are shown by their SMILES. Where two headings read alike, the source gives them in different places.

Sequence of HCMV NO protease (P16753 1-256): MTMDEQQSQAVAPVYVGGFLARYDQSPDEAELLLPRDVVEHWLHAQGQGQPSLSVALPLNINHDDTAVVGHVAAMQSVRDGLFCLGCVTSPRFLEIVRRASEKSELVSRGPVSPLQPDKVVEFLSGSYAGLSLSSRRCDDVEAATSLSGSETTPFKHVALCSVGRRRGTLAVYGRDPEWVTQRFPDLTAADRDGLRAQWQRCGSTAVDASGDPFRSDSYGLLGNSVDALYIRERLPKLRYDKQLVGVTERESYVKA

With `CCC(NC(=O)N1C(=O)[C@@H](C)[C@@H]1Cc1ccccc1)c1ccncc1` (single isomer, unassigned) [Entry 206], the CC50 in data set [1] is more than 250 µM. For the same compound, the EC50 (commonly the concentration giving half of the maximal effect) in data set [2] was 96 µM. In data set [3], inhibition was half-maximal at 3.2 µM (IC50).

In the case of `CC[C@@H](NC(=O)N1C(=O)C[C@@H]1Cc1ccccc1)c1ccccc1` [Entry 118], in data set [1], the CC50 is more than 250 µM. For the same compound, the EC50 in data set [2] (setting [4]) is 180 µM. Further, the concentration for half-maximal inhibition (IC50) – broadly, the concentration at which inhibition is half-maximal – in data set [3] is 2.6 µM.

As for `C[C@@H]1C(=O)N(C(=O)Nc2ccncc2)[C@H]1Cc1ccccc1` [Entry 204], in data set [1], the CC50 is more than 250 µM. The EC50 in data set [2] (setting [4]) turned out to be 205 µM. This compound returned an IC50 in data set [3] of 0.97 µM.

Turning to `O=C1C[C@H](Cc2ccccc2)N1C(=O)NCc1ccncc1` [Entry 136, 4(S)-Benzyl-2-oxoazetidine-1-carboxylic acid (4-pyridinylmethyl) amide], the CC50 in data set [1] is more than 250 µM. Further, the half-maximal effective concentration (EC50) in data set [2] (setting [4]) is more than 250 µM. This compound also yielded an IC50 in data set [3] of 13 µM.

In the case of `O=C1C[C@H](Cc2ccccc2)N1C(=O)NCc1cccnc1` [Entry 142], the CC50 in data set [1] was more than 250 µM. The concentration for a half-maximal effect (EC50) in data set [2] (setting [4]) was more than 250 µM. In data set [3], this compound came in with an IC50 of 9.7 µM.

For `C[C@@H](NC(=O)N1C(=O)C[C@@H]1Cc1ccccc1)c1cccc2ccccc12` [Entry 105], the CC50 in data set [1] is more than 18 µM. The EC50 in data set [2] (setting [4]) was more than 18 µM. The concentration for half-maximal inhibition (IC50) in data set [3] came to 7.7 µM.

Consider `CC(C)c1ccc(CN(C)C(=O)N2C(=O)C[C@@H]2Cc2ccccc2)cc1` [Entry 134], for which, in data set [1], the CC50 amounted to 200 µM. In addition, the EC50 in data set [2] (setting [4]) is 150 µM. This compound also displayed an IC50 in data set [3] of 6.4 µM.

With `CN(Cc1ccccc1[N+](=O)[O-])C(=O)N1C(=O)C[C@@H]1Cc1ccccc1` [Entry 124], the CC50 in data set [1] was more than 250 µM. Also, the EC50 in data set [2] (setting [4]) came to 150 µM. In addition, 6.9 µM corresponded to half-maximal inhibition in data set [3] (IC50).

Regarding `CN(Cc1ccc(C(F)(F)F)cc1)C(=O)N1C(=O)C[C@@H]1Cc1ccco1` [Entry 221], the CC50 in data set [1] is more than 100 µM. In addition, in data set [2] (setting [4]), the 50% effective concentration (EC50) stood at 59 µM. For the same compound, the IC50 in data set [3] stood at 7.1 µM.

Regarding `O=C1C[C@H](Cc2ccccc2)N1C(=O)NCc1ccc2c(c1)OCO2` [Entry 111], in data set [1], the CC50 is more than 150 µM. Further, in data set [2] (setting [4]), the EC50 was more than 150 µM. In data set [3], this compound came in with a concentration for half-maximal inhibition (IC50) of 3.7 µM.

For the compound `CN(Cc1ccc(C(F)(F)F)cc1)C(=O)N1C(=O)C[C@@H]1Cc1nccs1` [Entry 218, 4(R)-(2-Thiazolylmethyl)-2-oxoazetidine-1-carboxylic acid N-methyl-N-{{(4-trifluoromethyl)phenyl}methyl}amide], the CC50 in data set [1] worked out at 178 µM. The EC50 in data set [2] is 78 µM. In data set [3], inhibition was half-maximal at 5.5 µM (IC50).

Turning to `CN(Cc1ccc(C#N)cc1)C(=O)N1C(=O)C[C@@H]1Cc1ccccc1` [Entry 145], the CC50 in data set [1] was more than 250 µM. Further, in data set [2] (setting [4]), the EC50 stood at 120 µM. The compound also yielded an IC50 in data set [3] of 6.1 µM.

As to `CC(=O)Nc1ccc(CN(C)C(=O)N2C(=O)C[C@@H]2Cc2ccccc2)cc1` [Entry 132], the CC50 in data set [1] was more than 250 µM. The concentration giving a half-maximal response (EC50) in data set [2] (setting [4]) was found to be 150 µM. Besides, 17 µM corresponded to half-maximal inhibition in data set [3] (IC50).

Consider `O=C1C[C@H](Cc2ccccc2)N1C(=O)Nc1ccc(F)cc1` [Entry 101], for which the CC50 in data set [1] was more than 250 µM. For the same compound, in data set [2] (setting [4]), the EC50 was more than 250 µM. For the same compound, in data set [3], the IC50 is 3.7 µM.

In the case of `CN(Cc1ccc([N+](=O)[O-])cc1)C(=O)N1C(=O)C[C@@H]1Cc1nccs1` [Entry 227], the CC50 in data set [1] is more than 29 µM. Also, the EC50 in data set [2] (setting [4]) was more than 29 µM. For the same compound, the IC50 in data set [3] was 2.5 µM.

In the case of `CN(Cc1ccc(C(F)(F)F)cc1)C(=O)N1C(=O)C[C@@H]1Cc1cccs1` [Entry 228], the CC50 in data set [1] is more than 16 µM. For the same compound, the 50% effective concentration (EC50) in data set [2] (setting [4]) is more than 16 µM. In data set [3], this compound registered an IC50 of 4.5 µM.

As for `CN(Cc1ccc(Cl)cc1)C(=O)N1C(=O)C[C@@H]1Cc1ccccc1` [Entry 126], the CC50 in data set [1] is more than 250 µM. Besides, the EC50 in data set [2] (setting [4]) stood at 150 µM. For the same compound, in data set [3], inhibition was half-maximal at 6.9 µM (IC50).

`CCC(NC(=O)N1C(=O)[C@@H](C)[C@@H]1Cc1ccccc1)c1ccncc1` (single isomer, unassigned) [Entry 205]: in data set [1], the CC50 was more than 250 µM. Moreover, in data set [2], the EC50 was more than 250 µM. In data set [3], this compound came in with an IC50 of 21 µM.

These data come from US6242439A, “Azetidinone derivatives for the treatment of HCMV infections” (Boehringer Ingelheim (Canada) Ltd., priority 1998, dated 2001).
